From patent publication US12351587B2, “Bicyclic compound as RIP-1 kinase inhibitor and application thereof” (MEDSHINE DISCOVERY INC., priority 2019, dated 2025)

Columns and labels:
[1] = In vitro Caco-2 cell permeability assay; type: in vitro ADME; conditions: human, pH 7.4, Caco-2, 2 μM
Description: MEM (minimum essential medium) supplemented with 2 mM L-glutamine, 10% Fetal Bovine Serum (FBS), 100 U/mL penicillin-G and 100 μg/mL streptomycin was used for cell culture. The conditions for cell culture were 37±1° C., 5% CO2 and saturated humidity. When cells were grown to 80-90% confluency, trypsin (0.05%, w/v)/EDTA (0.02% w/v) digestion solution was added to digest the cells for seeding. The cells were seeded in BD Falcon's Transwell-96-well plate at a seeding density of 1×10^5 cells/cm^2. The cells were cultured in a carbon dioxide incubator for 22 days and then used for transport assay. […]
In this assay, liquid chromatography tandem mass spectrometry (LC/MS/MS) was used to semi-quantitatively analyze the peak area ratio of the assay compound and the control substances fenoterol, propranolol and digoxin to the internal standard in the starting solution, the receiving solution, and the supernatant of the dosing well. […]
Apparent permeability coefficient (Papp, cm/s), efflux rate and recovery rate were calculated using the following formulae.
The apparent permeability coefficient (Papp, cm/s) was calculated using the following formula: Papp=(dCr/dt)×Vr/(A×C0) […]
The efflux rate was calculated using the following formula: Efflux rate=Papp(BA)/Papp(AB) The recovery rate was calculated using the following formula: % recovery rate=100×[(Vr×Cr)+(Vd×Cd)]/(Vd×C0) […]

[2] = test system: TNF-α/zVAD induced systemic inflammatory response syndrome (SIRS); test: Mouse model of TNF-α induced systemic inflammatory response syndrome (SIRS); type: in vivo; conditions: 10 mpk by gavage
Description: Assay Example 4: In Vivo Efficacy Study in Mouse Model of Tumor Necrosis Factor (TNF-α) Induced Systemic Inflammatory Response Syndrome (SIRS)
Instruments and Materials • 1) Electronic balance: Brand Changzhou Tianzhiping Instrument Equipment Co., Ltd., Model JY20002 • 2) Anal thermometer. Brand PHYSITEMP, model BAT-12 Formulation of Reagents • 1) TNF-α: TNF-α was centrifuged quickly (10000 rmp, 30 s) before opening the lid. One bottle of TNF-α (1 mg) was dissolved in 1 mL of sterile water to prepare a mother liquor with a concentration of 1 mg/mL. The mother liquor was stored at 4° C. and cm be stored for one week, 1000 μL of the mother liquor was weighed and added to 5667 μL of sterile water, and then 333 mg of trehalose was added and dissolved to prepare a working solution. • 2) zVAD: […] of zVAD was weighed and added to 480 μL of DMSO, and the mixture was vortexed, sonicated, and heated at 37° C., and then 15.52 mL of physiological saline was added. A working solution with a concentration of 1.25 mu/mL was prepared. Assay Steps • 1) The mice were reared adaptively for 3 days, and then randomly grouped into cages, 5 mice in each cage. Ear tags were cut. • 2) Firstly, the mice were given the corresponding compound by gavage according to their body weight, and then injected intraperitoneally with zVAD at a dose of 250 μg per mouse. After the intraperitoneal injection of zVAD, the anal temperature was measured immediately (0 h), and the time was recorded. The time when mice were given zVAD was defined as the 0th hour (0 h). • 3) After 15 minutes, TNF-α was injected through the tail vein at a dose of 200 μL per mouse, and then the anal temperature was measured 15 minutes later (0.5 h). • 4) After 1 h, zVAD was injected intraperitoneally at a dose of 125 μg per mouse, and then the anal temperature was measured immediately (1 h). The anal temperature was measured again at 2 h, 3 h, and 4 h.

[3] = Pharmacokinetics in C57BL/6 mice; type: in vivo; conditions: C57BL/6, plasma, mouse
Description: Eight healthy adult C57BL/6 mice (6-9 weeks old, purchased from Shanghai Lingchang Biotechnology Co., Ltd.) were selected, and randomly divided into two groups, 4 mice in each group (n=2, cross blood sampling). One group was given 0.5 mg/kg of the assay compound by intravenous injection, and the other group was given 1 mg/kg of the assay compound by gavage. Plasma samples were collected respectively from animals in the intravenous group and gavage group at 0.083, 0.25, 0.5, 1.0, 2.0, 4.0, 6.0, 8.0, 24 hours after administration. The blood concentration was determined by LC-MS/MS method. Relevant pharmacokinetic parameters were calculated by WinNonlin™ Version 6.3 (Pharsight, Mountain View, CA) pharmacokinetic software using non-compartmental model and linear logarithmic trapezoidal method. AUC0-last represents the area under the plasma concentration-time curve from zero time point to the last detectable concentration time point; Cmax represents the peak concentration; Tmax represents the time to reach the peak; T1/2 represents the half-life. CL represents the clearance rate; Tlast represents the last quantifiable time point; p.o. represents per os; i.v. represents intravenous injection; and F % represents oral bioavailability.

With `CN1C(=S)[C@@H](NC(=O)c2ncn(Cc3ccccc3)n2)COc2cccnc21` [WX009] the Papp at 120 min, 2 μM ([1]; 120 minutes, pH 7.40, read-out: Apparent permeability coefficient) was 18.4 ×10⁻⁶ cm/s, the efflux ratio at 120 min, 2 μM ([1]; Papp(BA)/Papp(AB), read-out: Efflux rate) was 0.75 and the “4-hour survival rate of animals” value [2] was 100%. For the same molecule, the “Decrease in mouse body temperature” value ([2]; 1 hour) was 0.94 °C, the “Decrease in mouse body temperature” value ([2]; 2 hours) was 1.2 °C and the “Decrease in mouse body temperature” value ([2]; 3 hours) was 1.42 °C. For the same molecule, the “Decrease in mouse body temperature” value ([2]; 4 hours) was 1.52 °C, the AUC(0-t) ([3]; iv, i.v. 0.5 mg/kg) was 2.21 µM·h and the clearance ([3]; iv, i.v. 0.5 mg/kg) was 9.4 mL/min/kg. It also gave a half-life ([3]; iv, i.v. 0.5 mg/kg) of 84 min, a Vd ([3]; iv, i.v. 0.5 mg/kg, read-out: Vdss) of 1.1 L/kg and a bioavailability ([3]; oral, p.o. 1 mg/kg vs i.v. 0.5 mg/kg) of 89.1%. The AUC(0-t) ([3]; po, p.o. 1 mg/kg) was 3.85 µM·h, the Cmax ([3]; po, p.o. 1 mg/kg) was 1500 nM and the Tmax ([3]; po, p.o. 1 mg/kg) was 30 min.
